Laboratory results taken from US5013759A, “Compounds and compositions having anti-inflammatory and analgesic activity” (The Procter & Gamble Company, priority 1990, dated 1991).

Key:
[1] = system: Croton Oil Inflamed Mouse Ear; experiment: Croton Oil Inflamed Mouse Ear Test (Topical treatment); assay type: in vivo, Adult male Cox ICR mice; conditions: 1% solution in ethanol, two doses, 4 h after croton oil, All values significant p 0.05
Description: Substituted phenylacetic acid amide compounds were tested for anti-inflammatory activity using the Croton Oil Inflamed Mouse Ear Test (Topical treatment).
Adult male Cox ICR mice, 25-35 g, were treated at about 3:00 PM on the left ear with 25 l of a 1% solution of the test compound in ethanol. They were placed in individual stainless steel cages where food and water was available ad libitum. The following morning around 8:00 AM the mice were dosed a second time on the same ear. One hour after the second dose, 25 l of 2% croton oil in acetone was applied to the left ear of the control and test groups.
Four hours after the croton oil treatment, the mice were sacrificed by cervical dislocation and both ears removed. A 5 mm punch biopsy was taken from each ear and weighed to the nearest 0.1 mg on a Cahn electrobalance.
The results were expressed as percent inhibition of the swelling response compared to the control group according to the formula:
(C-Ta..n)/C×100=Percent Inhibition
where C is the average difference between the left and right ear weights of the control group, and
Ta..n is the difference between left and right ear weights of animal (a..n) in a treated group.
Statistical tests for significance between groups were made using a one way analysis of variance of the ear weight differences.

[2] = Oral administration of soft gelatin capsules to a human (Example IV); assay type: in vivo; conditions: two capsules each containing 225 mg of the composition, 60 kg human
Description: (§1) A composition for oral administration is prepared by combining the following ingredients:
N-oleyl-4-hydroxy-3-methoxyphenylacetamide, 1.10 kg

[3] = Oral administration of syrup to an adult human (Example V); assay type: in vivo; conditions: one teaspoon of syrup, 70 kg adult human
Description: as §1
N-oleyl-4-hydroxy-3-methoxyphenylacetamide, 250 g
Propylene glycol, 1800 ml
Artificial Cherry flavor, 10 ml
The above ingredients are combined to produce a syrup and are packaged under sterile conditions in 6 oz. bottles.

[4] = system: Carrageenan Rat Paw Edema; experiment: Carrageenan Rat Paw Edema Test (Oil Vehicle); assay type: in vivo, Male Sprague Dawley rats; conditions: 4 h after carrageenan, All values significant p 0.05
Description: Substituted phenylacetic acid amide compounds were tested for anti-inflammatory activity using the Carrageenan Rat Paw Edema Test (Oil Vehicle).
Male Sprague Dawley rats (Charles River Laboratories) were weighed and food fasted overnight. The animals were divided into four to six groups of six animals each according to body weights, average about 145 g, so that each group had about the same average weight (within 10 g).
The following morning five ml of water was dosed orally via stomach tube to each animal to facilitate paw swelling. The animals were dosed with the test compound and then placed in individual cages. The drug was dissolved in ethyl oleate: benzyl alcohol, 98:2, and delivered via stomach tube in 1 ml volume.
Paw volumes (0 time) were determined on both hind paws with a mercury displacement device equipped with a transducer and digitizer. […] Four hours after the carrageenan injection, the paw volumes are again determined.
The results are expressed as percent inhibition of the mean paw volume of the test group relative to the control group according to the formula: […]
Ta..n is the difference in paw swelling in the treated animals (a..n). Statistical differences are determined by one way analysis of variance.

[5] = Topical application to forearm of a human (Example VI); assay type: in vivo; conditions: 0.4 ml to 80 cm^2 of forearm, 60 kg human
Description: A composition for topical administration is prepared by combining the following ingredients:
N-oleyl-4-hydroxy-3-methoxyphenylacetamide, 4 g
The phenylacetamide is melted with slight warming and combined with the other ingredients.

SMILES | Percent Inhibition (of the swelling response compared to control) [1] | also measured
C=CCCCCCCCCNC(=O)Cc1ccc(O)c(OC)c1 [N-9-decenyl-4-hydroxy-3-methoxyphenylacetamide] | 98.9 +/- 11.9% | –
CCCCCCCC(C)NC(=O)Cc1ccc(O)c(OC)c1 (stereo not drawn) [N-(2-nonanyl)-4-hydroxy-3-methoxyphenylacetamide] | 55.6 +/- 26.5% | –
CCCCCCC(C)NC(=O)Cc1ccc(O)c(OC)c1 (stereo not drawn) [N-(2-octanyl-)-4-hydroxy-3-methoxyphenylacetamide] | 48.1 +/- 15.8% | –
C=C(CCCCCCCCC)CCCCCCCCNC(=O)Cc1ccc(O)c(OC)c1 [N-(9-methylene-1-octadecanyl-)-4-hydroxy-3-methoxyphenyl acetamide] | – | Analgesia [2]: increased analgesic effect; Reduction of inflammation [2]: substantially similar reduction of inflammation
COc1cc(CC(=O)NC2CCCCCCC2)ccc1O [N-cyclooctyl-4-hydroxy-3-methoxyphenylacetamide] | – | Analgesia [3]: weaker analgesic effect; Reduction of inflammation [3]: substantially similar reduction of inflammation
CCCCCCCCCCNC(=O)Cc1ccc(O)c(OC)c1 [N-decyl-4-hydroxy-3-methoxyphenylacetamide] | 58.1 +/- 29.4% | –
CCCCCCCCCCCCNC(=O)Cc1ccc(O)c(OC)c1 [N-dodecyl-4-hydroxy-3-methoxyphenylacetamide] | 55.3 +/- 20.7% | –
CCCCCCCNC(=O)Cc1ccc(O)c(OC)c1 [N-heptyl-4-hydroxy-3-methoxyphenylacetamide] | 69.4 +/- 33.9% | –
CCCCCCCCCNC(=O)Cc1ccc(O)c(OC)c1 [N-nonyl-4-hydroxy-3-methoxyphenylacetamide] | 80.7 +/- 23.0% | –
CCCCCCCCNC(=O)C(C)c1ccc(O)c(OC)c1 (stereo not drawn) [N-octyl-4-hydroxy-3-methoxyphenyl-2-methyl-acetamide] | 88.9 +/- 24.1% | –
CCCCCCCCNC(=O)Cc1ccc(O)c(OC)c1 [N-octyl-4-hydroxy-3-methoxyphenylacetamide] | 89.1 +/- 15.7% | –
CCCCCCCC/C=C\CCCCCCCCNC(=O)Cc1ccc(O)c(OC)c1 [N-oleyl-4-hydroxy-3-methoxyphenylacetamide] | 83.5 +/- 11.9% | Percent Inhibition (of mean paw volume relative to control) ([4]; 200 mg/kg oral in ethyl oleate: benzyl alcohol 98:2): 89.3 +/- 10.8%; Percent Inhibition (of mean paw volume relative to control) ([4]; 400 mg/kg oral in ethyl oleate: benzyl alcohol 98:2): 95.6 +/- 11.2%
CCCCCCCCCCCCCCCCCCNC(=O)Cc1ccc(O)c(OC)c1 [N-stearyl-4-hydroxy-3-methoxyphenylacetamide] | – | Analgesia [5]: weaker analgesic effect; Reduction of inflammation [5]: substantially similar reduction of inflammation
